Data set [1] deals with A549 (non-small cell lung cancer). Description: NCI method SRB growth inhibition, A549. The class given is cell-based. The following applies: Homo sapiens; A549, treated 48 hours, SRB stain. In a few lines: (§1)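 NCI 60-line protocol, 48 h compound exposure; SRB stain, OD 515 nm. Growth % = (Ti−Tz)/(C−Tz)×100 when Ti≥Tz, else (Ti−Tz)/Tz×100. GI50 at 50, TGI at Ti=Tz, LC50 at −50.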

For data set [2], the system named is 786-0 (renal cancer). The data set can be described thus: NCI method SRB growth inhibition, 786-0. The class given is cell-based. The following applies: Homo sapiens; 786-0, treated 48 hours, SRB stain. A digest of the protocol:
as §1
Background: In SRB staining, fixed cells bind dye roughly in proportion to their protein.

The subject of data set [3] is HCT116 (colon cancer). The data set can be described thus: NCI method SRB growth inhibition, HCT116. The following applies: Homo sapiens, HCT-116; HCT116, treated 48 hours, SRB stain. In kind it is cell-based. A digest of the protocol:
as §1

In data set [4] the test system is K562 (leukemia). Description: NCI method SRB growth inhibition, K562. The class given is cell-based. The following applies: Homo sapiens; K562, treated 48 hours, SRB stain. A digest of the protocol:
as §1

The test system of data set [5] is PC-3 (prostate cancer). Description: NCI method SRB growth inhibition, PC-3. The class given is cell-based. The following applies: Homo sapiens; PC-3, treated 48 hours, SRB stain. In a few lines:
as §1

Data set [6] relates to LOX-IMVI (melanoma). The data set can be described thus: NCI method SRB growth inhibition, LOX-IMVI. The class given is cell-based. The following applies: Homo sapiens, treated 48 hours, SRB stain. A digest of the protocol: as §1
The test system of data set [7] is SF295 (central nervous system tumor). The data set can be described thus: NCI method SRB growth inhibition, SF295. The following applies: Homo sapiens, SF-295; SF295, treated 48 hours, SRB stain. The class given is cell-based. In a few lines: as §1
For data set [8], the system named is OVCAR-3 (ovarian cancer). Description: NCI method SRB growth inhibition, OVCAR-3. The class given is cell-based. The following applies: Homo sapiens; OVCAR-3, treated 48 hours, SRB stain. A digest of the protocol:
as §1

Data set [9] deals with HS 578T (breast cancer). Description: NCI method SRB growth inhibition, HS 578T. The class given is cell-based. The note with it: Homo sapiens, HS578T, treated 48 hours, SRB stain. A digest of the protocol: as §1
Data set [10] in a line: Liver microsomes stability. The class given is in vitro ADME, human. The following applies: for half-life at 1 μM: human, human liver microsomes. In a few lines:
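Compound at 1 μM final incubated with 1 mg/mL human liver microsomes and 1 mM NADPH (no-NADPH control), sampled at 0, 5, 15, 30, 60 min. Remaining parent quantified by LC-MS/MS; T1/2 = 0.693/k.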
For orientation: Liver microsomes are vesicles of endoplasmic reticulum, rich in cytochrome P450 enzymes.

Data set [11] can be described thus: Metabolic stability in vivo (plasma half-life after IV). The following applies: intravenously at 1 mg/kg, male BALB/c nude mice; for half-life: mouse, plasma, iv, read-out: T½ of (IV in nude mice) (converted). How it is done: The intravenous injection group of the embodiment compound was prepared with the mixed solvent of DMA:PEG400:30% SBECD=5:25:70 to form a 0.2 mg/mL of solution, and administered intravenously at 1 mg/kg of weight; and the oral preparation group was prepared with 0.5% MC to form a 1 mg/mL of solution, and administered by oral gavage at 10 mg/kg weight.
• Male BALB/c nude mice, 4-5 weeks old, purchased from Shanghai SLAC. 3. Experiment Method: 3.1 Instruments: • Liquid chromatography system: Shimadzu liquid chromatography system Shimadzu LC-30AD • MS/MS system: Applied Biosystems API5500 • Data collection: Analyst Software 1.5.2 3.2 Chromatographic Conditions Chromatographic Column • Analytical column: Kinetex 2.6u C18 100 A column (3.0 mm×30 mm) • Mobile phase: A: 10 mM NH4OAc (0.1% FA); B: Acetonitrile with 0.1% […] • Flow rate: 1.0 mL/min
Ion source was an electron spray ionization (ESI source) with negative ion detection; spray voltage source was 5500 V; ion source gas 1 (N2) was 50 psi; ion source gas 2 (N2) was 50 psi; air curtain gas (N2) was 30 psi. Scanning mode was multiple reaction monitoring (MRM); scanning time was 80 ms; collision gas pressure was 10 psi;
Grouping experiment, with three animals in each group, starting from now on, administration was started according to the weight of the animals. Blood was collected according to 5 min, 15 min, 30 min, 1 h, 2 h, 4 h, 8 h and 24 h after administration.
To 25.0 μL of plasma, 25.0 μL of internal standard solution (Tolbutamide (250 ng/mL) in acetonitrile), 25.0 μL of acetonitrile and 100 μL of acetonitrile were added, and the mixture was vortexed for 1 min, and centrifuged for 5 min (14000 rpm). 120 μL of the resulting supernatant was added with 80.0 μL of water (containing 1% formic acid) and mixed well, then analyzed by LC/MS/MS.

The mark [12] stands for this setting: 1 μM compound, 1 mg/mL human liver microsomes, 1 mM NADPH.
Where [13] appears, read: 1 μM compound, 1 mg/mL human liver microsomes, 1 mM NADPH, read-out: T½ of HLM.
Where [14] appears, read: as repeated in Table 4, read-out: T½ of HLM (in vitro).

The results in this text go back to patent publication US12577213B2 (NINGBO COMBIREG PHARMACEUTICAL TECHNOLOGY CO., LTD., priority 2020, dated 2026).

One may read the GI50 as the concentration at which growth is held to half of that of the control. Lower therefore signals greater sensitivity of the cells. For orientation: microsomal CLint means a measure of how fast metabolising enzymes remove a compound, apart from limits set by blood flow. Low values mean greater metabolic stability, high ones faster metabolism.

Read-outs that look alike come from different tables or passages of the source.

For the compound `[2H]C([2H])([2H])Oc1cc(C(=O)Nc2cc3c(cc2Oc2cc(C)cc(C)c2)C(=O)N[C@@H](CC(=O)N(CC)CC)C(=O)N3)c(Cl)c(OC([2H])([2H])[2H])c1OC([2H])([2H])[2H]` [Compound 1, (S)-2-chloro-N-[3-[2-(diethylamino)-2-oxoethyl]-7-(3,5-dimethylphenoxy)-2,5-dioxo-2,3,4,5-tetrahydro-1H-benzo[e][1,4]diazepin-8-yl]-3,4,5-tris(trideuteromethoxy)benzamide], the GI50 in [1] is 15 nM; in data set [2], 8.1 nM; in [3], 5.4 nM; in [4], under 5 nM; in data set [5], 5.5 nM; in [6] it was under 5 nM. The GI50 in data set [7] turned out to be 12.3 nM; in data set [8], 5.5 nM; in [9], 31.6 nM. Moreover, in [10] (setting [12]), the microsomal CLint at 1 μM is 16.5 µL/min/mg. For the same compound, the half-life at 1 μM in [10] (setting [13]) and in [10] (setting [14]) was 42 min in each case. Also, in data set [11], the half-life is 53.1 min.

`CCN(CC)C(=O)C[C@H]1C(=O)Nc2cc(NC(=O)c3cc(OC)c(OC)c(OC)c3Br)c(Oc3cc(C)cc(C)c3)cc2C(=O)N1C` [a, reference compound] had a microsomal CLint at 1 μM in data set [10] (setting [12]) of 63.1 µL/min/mg. Also, the half-life at 1 μM in data set [10] (setting [13]) and in data set [10] (setting [14]) was 11 min throughout. Further, the “T½ of (IV in nude mice)” value in data set [11] was 31.9 min.

For the compound `[2H]C([2H])([2H])C([2H])([2H])N(C(=O)C[C@H]1C(=O)Nc2cc(NC(=O)c3cc(OC)c(OC)c(OC)c3Cl)c(Oc3cc(C)cc(C)c3)cc2C(=O)N1C)C([2H])([2H])C([2H])([2H])[2H]` [Compound 12, (S)-2-chloro-N-[3-[2-[bis(pentadeuteroethyl)amino]-2-oxoethyl]-7-(3,5-dimethylphenoxy)-4-methyl-2,5-dioxo-2,3,4,5-tetrahydro-1H-benzo[e][1,4]diazepin-8-yl]-3,4,5-trimethoxybenzamide], the GI50 is under 5 nM in data set [1]; 9.9 nM in [2]; under 5 nM in [3]; under 5 nM in [4]; 5.4 nM in [5]; under 5 nM in data set [6]. Moreover, the GI50 in [7] is 10.8 nM; in data set [8] it was 12.6 nM; in data set [9] it was 13.3 nM. In addition, in [10] (setting [12]), the microsomal CLint at 1 μM is 30.7 µL/min/mg. Moreover, the half-life at 1 μM in [10] (setting [13]) and in [10] (setting [14]) was 22.6 min in each case. Moreover, the half-life in data set [11] is 34 min.

`[2H]C([2H])([2H])Oc1cc(C(=O)Nc2cc3c(cc2Oc2cc(C)cc(C)c2)C(=O)N[C@@H](CC(=O)N(C([2H])([2H])C([2H])([2H])[2H])C([2H])([2H])C([2H])([2H])[2H])C(=O)N3)c(Cl)c(OC([2H])([2H])[2H])c1OC([2H])([2H])[2H]` [Compound 6, (S)-2-chloro-N-[3-[2-[bis(pentadeuteroethyl)amino]-2-oxoethyl]-7-(3,5-dimethylphenoxy)-2,5-dioxo-2,3,4,5-tetrahydro-1H-benzo[e][1,4]diazepin-8-yl]-3,4,5-tris(trideuteromethoxy)benzamide]: the GI50 in data set [1] was 11.7 nM; in data set [2] it was 16.9 nM; in data set [3], under 5 nM; in data set [4], under 5 nM; in data set [5], 10.3 nM; in [6], under 5 nM. The GI50 amounted to 13.1 nM in [7], 11.9 nM in data set [8] and 20.5 nM in [9]. Besides, the microsomal CLint at 1 μM in [10] (setting [12]) came out at 9.5 µL/min/mg. Besides, the half-life at 1 μM in data set [10] (setting [13]) and in [10] (setting [14]) was 73 min each time. The half-life in data set [11] was 78.6 min.

With `COc1cc(C(=O)Nc2cc3c(cc2Oc2cc(C)cc(C)c2)C(=O)N[C@@H](CC(=O)N(C)C)C(=O)N3)c(Br)c(OC)c1OC` [d, reference compound], the half-life at 1 μM in [10] (setting [14]) was found to be 100 min. The half-life in [11] was 46.6 min.

As for `[2H]C([2H])([2H])C([2H])([2H])N(C(=O)C[C@@H]1NC(=O)c2cc(Oc3cc(C)cc(C)c3)c(NC(=O)c3cc(OC)c(OC)c(OC)c3Cl)cc2NC1=O)C([2H])([2H])C([2H])([2H])[2H]` [Compound 8, (S)-2-chloro-N-[3-[2-[bis(pentadeuteroethyl)amino]-2-oxoethyl]-7-(3,5-dimethylphenoxy)-2,5-dioxo-2,3,4,5-tetrahydro-1H-benzo[e][1,4]diazepin-8-yl]-3,4,5-trimethoxybenzamide], the GI50 in data set [1] was 15.3 nM; in data set [2], 13.9 nM; in data set [3], under 5 nM; in [4], under 5 nM; in data set [5], 9.7 nM; in data set [6], under 5 nM. The GI50 in data set [7] is 10.3 nM; in data set [8] it was 5 nM; in [9] it was 13.3 nM. Also, the microsomal CLint at 1 μM in data set [10] (setting [12]) stood at 13.7 µL/min/mg. Further, the half-life at 1 μM in [10] (setting [13]) and in data set [10] (setting [14]) was 50.6 min throughout. Besides, in data set [11], the half-life is 38 min.
